Experimental data as given in US20120065126A1, “Pharmaceutical Compositions Containing Antifungal Peptides” (BASF SE, priority 2009, published 2012).
Like-named read-outs stand apart in the source and are kept apart here.

Legend:
[1] = test system: C. albicans (DSM 11948); experiment: P18 in pharmaceutical base formulation (CFU); format: cell-based, Candida albicans; settings: mixed 1:9 with suspension
Protocol: The aim of the experiment was to study the effect of a pharmaceutical base formulation with the P18 peptide ingredient (P18 sequence H-KWKLFKKIPKFLHLAKKF-NH2 (Bachem AG, Switzerland)). For this purpose, the following base formulation was used: […]
1% hydroxycellulose 10% propylene glycol made up with water.
Based on the base formulation, formulations with rising P18 concentrations (500 ppm to 10 000 ppm) were prepared from a 20% concentrate solution.
The effect of the formulations on C. albicans (DSM 11948) was studied.
YM growth medium (Becton, Dickinson and Company, Sparks, USA) 3 g of yeast extract 3 g of malt extract 5 g of peptone 10 g of dextrose make up to 1 liter, set pH 6.2
The growth test was effected as follows: 5 ml of YM medium were inoculated with C. albicans and incubated at 30° C. and 200 rpm overnight.
1.5 ml reaction vessels were each filled with 1 ml of YM medium and inoculated with the C. albicans suspension from the overnight culture such that an optical density—measured at 600 nm—of 0.1 was obtained at the start of the experiment. The resulting C. albicans suspension was mixed in a ratio of 1:9 (formulation: C. albicans suspension) with the formulations. 1 μl of the culture was diluted with 20 μl of YM medium after 5 minutes, 10 minutes, 20 minutes and 60 minutes, and then plated out. After incubation over 24 hours, the colonies on the plates were counted.

[2] = test system: M. furfur; format: cell-based, Malassezia furfur; settings: shampoo base formulation 31-3 present
Protocol: (§1) The studies described hereinafter were conducted on the Malassezia furfur strain DSM 6170.
The minimum inhibitory concentration (MIC) of peptide P18 (H-KWKLFKKIPKFLHLAKKF-NH2; carboxyl terminus amidated) in the presence of shampoo base formulation 31-3 (Table 10) was tested in the following manner: […]
To prepare the shampoo base formulation, the Texapon NSO and Tego Betain L7 components were mixed and dissolved. NaOH was used to adjust the pH to pH 6-7.
(§2) The growth test was effected as follows: a shake culture containing M472 Pityrosporum medium was inoculated with M. furfur and incubated with shaking at 30° C. and 200 rpm overnight.
A 96-well microtiter plate was filled with 170 μl per well of M472 Pityrosporum medium and inoculated with 10 μl of M. furfur suspension from an overnight culture. This corresponded to an optical density of 0.02-0.1, measured at 620 nm. 20 μl of shampoo base formulation 31-3 were added to this mixture. Peptide P18 was dissolved with a concentration of 10 mM in DMSO.
The microtiter plate was incubated with shaking at 30° C.
After incubation for 24 hours, the colony forming units (CFU) were determined by resuspending 1 μl of each of the suspensions in 10 μl of medium, and then streaking them. After incubation over the course of 6 days, the colonies on the plate were counted. The experiment was conducted in double determination.

[3] = test system: M. furfur; experiment: Effect of P18 variants (CFU); format: cell-based, Malassezia furfur; settings: 50 μM peptide, with DMSO; 24 h
Protocol: as §1
The inhibitory effect of the following P18 variants on M. furfur was studied:
as §2
A 96-well microtiter plate was filled with 100 μl per well of M472 Pityrosporum medium and inoculated with M. furfur suspension from the overnight culture. The M. furfur suspension was adjusted at the start of the experiment to an optical density, measured at 600 nm, of 0.1.
The peptide variants were dissolved with a final concentration of 1 mM in dimethyl sulfoxide (DMSO). It is also possible to dispense with DMSO and to use a purely aqueous peptide solution. 5 μl of this solution were added to 100 μl of M. furfur suspension (final concentration of the P18 peptide 50 μM). In a control mixture, the same amount of DMSO without P18 peptide was added.
The microtiter plate was incubated with shaking at 30°.
After 24 h, the colony forming units (CFU) were determined by streaking 10 μl of each of the suspensions and, after incubation over the course of 6 days, counting the colonies. Two independent experiments each with three identical mixtures were conducted, and the number of colony forming units was averaged.

[4] = test system: Klebsiella pneumoniae (DSM 681); format: cell-based; settings: DSM 681, 24 h
Source text: Effect of peptide P18 (P18 sequence H-KWKLFKKIPKFLHLAKKF-NH2 (Bachem AG, Switzerland)) on Klebsiella pneumoniae (DSM 681) to study.
TSBY growth medium (Becton, Dickinson and Company, Sparks, USA) 17 g of pancreatin-degraded caseine 3 g of pancreatin-degraded soya 2.5 g of dextrose 5 g of sodium chloride 2.5 g of dipotassium phosphate 3 g of yeast extract (Becton, Dickinson and Company, Sparks, USA) make up to 1 liter, set pH 7
A shake culture containing TSBY medium was inoculated with K. pneumoniae and incubated with shaking at 37° C. and 200 rpm overnight.
The suspension was adjusted to an optical density measured at 600 nm of 0.1. A 96-well microtiter plate was filled with 95 μl per well of the K. pneumoniae suspension. Then a dilution series of the peptide with a final concentration in the wells between 0 and 1000 ppm was added. To this end, 5 μl per well of peptide solution with a concentration in the range from 0 ppm to 20 000 ppm were added to the K. pneumoniae suspension, so as to obtain final concentrations of the peptide in the wells in the range between 0 ppm and 1000 ppm.
The microtiter plate was incubated at 37° C., 600 rpm. The bacterial growth was assessed by measuring the optical density at 620 nm and observing it over 24 hours. The experiments were conducted at least in double determination and were independently repeated at least once.

H-KWKLFKKIPKFLHLAKKF-NH2 [P18, H-KWKLFKKIPKFLHLAKKF-NH2]
Colony forming units after the incubation time specified ([1]; 10 000 ppm in the formulation, 5 minutes): 0.5 ± 0 CFU
Colony forming units after the incubation time specified ([1]; 10 000 ppm in the formulation, 10 minutes): 0 ± 0 CFU
Colony forming units after the incubation time specified ([1]; 10 000 ppm in the formulation, 20 minutes): 0 ± 0 CFU
Colony forming units after the incubation time specified ([1]; 10 000 ppm in the formulation, 60 minutes): 0 ± 0 CFU
Colony forming units after the incubation time specified ([1]; 500 ppm in the formulation, 5 minutes): 1484 ± 28 CFU
Colony forming units after the incubation time specified ([1]; 500 ppm in the formulation, 10 minutes): 1445 ± 38 CFU
Colony forming units after the incubation time specified ([1]; 500 ppm in the formulation, 20 minutes): 1262 ± 354 CFU
Colony forming units after the incubation time specified ([1]; 500 ppm in the formulation, 60 minutes): 962 ± 738 CFU
Colony forming units after the incubation time specified ([1]; 1000 ppm in the formulation, 5 minutes): 863 ± 553 CFU
Colony forming units after the incubation time specified ([1]; 1000 ppm in the formulation, 10 minutes): 616 ± 76 CFU
Colony forming units after the incubation time specified ([1]; 1000 ppm in the formulation, 20 minutes): 251 ± 109 CFU
Colony forming units after the incubation time specified ([1]; 1000 ppm in the formulation, 60 minutes): 3.25 ± 1.8 CFU
Colony forming units after the incubation time specified ([1]; 2000 ppm in the formulation, 5 minutes): 29 ± 23 CFU
Colony forming units after the incubation time specified ([1]; 2000 ppm in the formulation, 10 minutes): 3.5 ± 3.5 CFU
Colony forming units after the incubation time specified ([1]; 2000 ppm in the formulation, 20 minutes): 0.25 ± 0.4 CFU
Colony forming units after the incubation time specified ([1]; 2000 ppm in the formulation, 60 minutes): 0 ± 0 CFU
Colony forming units after the incubation time specified ([1]; 5000 ppm in the formulation, 5 minutes): 1 ± 0.7 CFU
Colony forming units after the incubation time specified ([1]; 5000 ppm in the formulation, 10 minutes): 0 ± 0 CFU
Colony forming units after the incubation time specified ([1]; 5000 ppm in the formulation, 20 minutes): 0 ± 0 CFU
Colony forming units after the incubation time specified ([1]; 5000 ppm in the formulation, 60 minutes): 0 ± 0 CFU
Colony forming units (CFU) after incubation time of 24 hours ([2]; P18 25 μM): 80 CFU
Colony forming units (CFU) after incubation time of 24 hours ([2]; P18 50 μM): 32 CFU
Colony forming units (CFU) after incubation time of 24 hours ([2]; P18 100 μM): 0 CFU
Colony forming units (CFU) after incubation time of 24 hours ([2]; P18 200 μM): 0 CFU
Colony forming units (CFU) after incubation time of 24 hours ([2]; P18 300 μM): 0 CFU
Colony forming units (CFU) after incubation time of 24 hours ([2]; P18 400 μM): 0 CFU
Colony forming units (CFU) after incubation time of 24 hours ([2]; P18 500 μM): 0 CFU
Averaged number of colony forming units (CFU) [3]: 0 CFU
Minimum inhibitory concentration [4]: 125 ppm
